Experimental data reported in patent US20050282840A1, “Methods of modulating neurotrophin-mediated activity” (PainCeptor Pharma Corporation, priority 2004, published 2005).
Where two headings read alike, the source gives them in different places.

Tests used:
[1] = biological target: T1, p75^NTR receptors (PC12 cells) (Rattus norvegicus, UniProt P07174); assay: Basic screening assay: binding of 125I-BDNF to PC12 cells; conditions: read-out: BDNF Activity % Maximal Binding
T1 construct: endogenous in cells; host or cells: PC12 cells
T1 sequence (P07174 30-425): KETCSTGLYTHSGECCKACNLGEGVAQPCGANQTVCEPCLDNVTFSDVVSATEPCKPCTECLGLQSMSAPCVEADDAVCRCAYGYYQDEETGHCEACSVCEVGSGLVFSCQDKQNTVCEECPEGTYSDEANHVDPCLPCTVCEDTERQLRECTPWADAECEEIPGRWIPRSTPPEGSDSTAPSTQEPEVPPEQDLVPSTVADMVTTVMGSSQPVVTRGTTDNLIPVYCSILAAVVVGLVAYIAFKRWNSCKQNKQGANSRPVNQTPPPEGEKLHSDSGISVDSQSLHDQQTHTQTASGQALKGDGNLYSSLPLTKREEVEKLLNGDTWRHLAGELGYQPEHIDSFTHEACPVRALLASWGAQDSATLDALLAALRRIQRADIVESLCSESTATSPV
T1 sequence (P23560 129-247 partner): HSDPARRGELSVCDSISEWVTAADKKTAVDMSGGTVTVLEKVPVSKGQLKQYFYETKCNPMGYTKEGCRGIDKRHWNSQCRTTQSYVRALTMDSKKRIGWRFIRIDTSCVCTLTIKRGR
Procedure, shortened: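 4×10^6 PC12 cells incubated 2 h at 4° C, rotating, with 0.5 nM ^125I-BDNF (final) and compound at 50 μM, in duplicate or more. Bound ligand separated through 10% glycerol by centrifugation and counted by gamma counter; specific binding is Bmax minus NSB; inhibitors followed up for EC50.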

[2] = test system: p75^NTR receptors (PC12 cells); assay: Basic screening assay: binding of 125I-NGF to PC12 cells; conditions: Table 4; test compound 50 μM; 0.5 nM 125I-NGF; PC12 cells; 2 h at 4° C.; specific binding as percent of control
Procedure, shortened: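 PC12 cells (4×10^6) incubated 2 h at 4° C with 0.5 nM 125I-NGF and test compound at 50 μM, rotating. Bound tracer pelleted through 10% glycerol and gamma-counted; specific binding expressed as percent of control after NSB subtraction.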

[3] = Table 4, test compound 50 μM, 0.5 nM 125I-BDNF, PC12 cells, 2 h at 4° C., specific binding as percent of control

SMILES	activity at 50 µM [1, 3] [%]	NGF Activity % Maximal Binding [2]	activity at 50 µM [1] [%]
O=C(O)CCCN1C(=O)C(=Cc2ccc(-c3ccc([N+](=O)[O-])cc3)o2)SC1=S [Compound 98, 4-{5-[5-(4-Nitrophenyl)furan-2-ylmethylene]-4-oxo-2-thioxo-thiazolidin-3-yl}-butyric acid]	> 50	* (50 < *)	
CCOC(=O)c1ccc(-c2ccc(C=C3C(=O)NC(=S)NC3=O)o2)cc1 [Compound 99, 4-[5-(4,6-Dioxo-2-thioxo-tetrahydro-pyrimidin-5-ylidenemethyl)furan-2-yl]benzoic acid ethyl ester]		* (50 < *)	> 50
O=C1NC(=S)S/C1=C/c1ccc(-c2ccc([N+](=O)[O-])cc2Br)o1 [Compound 100, 5-[5-(2-Bromo-4-nitrophenyl)furan-2-ylmethylene]-2-thioxo-thiazolidin-4-one]	> 50	* (50 < *)	
COc1cc([N+](=O)[O-])ccc1-c1ccc(/C=C2\SC(=S)NC2=O)o1 [Compound 101, 5-[5-(2-Methoxy-4-nitrophenyl)furan-2-ylmethylene]-2-thioxo-thiazolidin-4-one]	> 50	* (50 < *)	
Cc1ccc(N2NC(=O)/C(=C/c3ccc(-c4ccc(S(N)(=O)=O)cc4)o3)C2=O)cc1 [Compound 102, 4-[5-(3,5-Dioxo-1-p-tolyl-pyrazolidin-4-ylidenemethyl)furan-2-yl]benzenesulfonamide]	> 50	* (50 < *)	
N=C1NC(=O)C(=Cc2ccc(-c3ccc([N+](=O)[O-])cc3Br)o2)S1 [Compound 103, 5-[5-(2-Bromo-4-nitrophenyl)furan-2-ylmethylene]-2-imino-thiazolidin-4-one]	> 50	* (50 < *)	
CCc1ccc(N2NC(=O)/C(=C/c3ccc(-c4ccc(S(N)(=O)=O)cc4)o3)C2=O)cc1 [Compound 104, 4-{5-[1-(4-Ethylphenyl)-3,5-dioxo-pyrazolidin-4-ylidenemethyl]furan-2-yl}benzenesulfonamide]	> 50	* (50 < *)	
NS(=O)(=O)c1ccc(-c2ccc(C=C3C(=O)NC(=S)NC3=O)o2)cc1 [Compound 105, 4-[5-(4,6-Dioxo-2-thioxo-tetrahydro-pyrimidin-5-ylidenemethyl)furan-2-yl]benzenesulfonamide]		* (50 < *)	> 50
Cc1ccc(-c2ccc(C=C3C(=O)NC(=S)NC3=O)o2)cc1[N+](=O)[O-] [Compound 106, 5-[5-(4-Methyl-3-nitrophenyl)furan-2-ylmethylene]-2-thioxo-dihydro-pyrimidine-4,6-dione]		* (50 < *)	> 50
COC(=O)c1cccc(-c2ccc(C=C3C(=O)NC(=S)NC3=O)o2)c1 [Compound 107, 3-[5-(4,6-Dioxo-2-thioxo-tetrahydro-pyrimidin-5-ylidenemethyl)furan-2-yl]benzoic acid methyl ester]		* (50 < *)	> 50
O=C1NC(=S)N/C1=C/c1ccc(-c2ccc(C(=O)O)c(Cl)c2)o1 [Compound 108, 2-Chloro-4-[5-(5-oxo-2-thioxo-imidazolidin-4-ylidenemethyl)furan-2-yl]benzoic acid]	> 50	* (50 < *)	
Cc1c(-c2ccc(C=C3C(=O)NC(=O)NC3=O)o2)cccc1[N+](=O)[O-] [Compound 109, 5-[5-(2-Methyl-3-nitrophenyl)furan-2-ylmethylene]-pyrimidine-2,4,6-trione]		* (50 < *)	> 50
CCN1C(=O)S/C(=C\c2ccc(-c3ccc([N+](=O)[O-])cc3)o2)C1=O [Compound 110, 3-Ethyl-5-[5-(4-nitrophenyl)furan-2-ylmethylene]-thiazolidine-2,4-dione]	> 50	* (50 < *)	
CSC1=NC(=Cc2ccc(-c3ccc([N+](=O)[O-])cc3)o2)C(=O)S1 [Compound 111, 2-Methylsulfanyl-4-[5-(4-nitrophenyl)furan-2-ylmethylene]-4H-thiazol-5-one]	> 50	* (50 < *)	
CSC1=NC(=Cc2ccc(-c3cccc([N+](=O)[O-])c3)o2)C(=O)S1 [Compound 112, 2-Methylsulfanyl-4-[5-(3-nitrophenyl)furan-2-ylmethylene]-4H-thiazol-5-one]	> 50	* (50 < *)	
CCOC(=O)CN1C(=O)S/C(=C\c2ccc(-c3ccc(Cl)c([N+](=O)[O-])c3)o2)C1=O [Compound 113, {5-[5-(4-Chloro-3-nitrophenyl)furan-2-ylmethylene]-2,4-dioxo-thiazolidin-3-yl}-acetic acid ethyl ester]	> 50	* (50 < *)	
Cc1ccc(-c2ccc(/C=C3/NC(=O)NC3=O)o2)cc1[N+](=O)[O-] [Compound 114, 5-[5-(4-Methyl-3-nitrophenyl)furan-2-ylmethylene]-imidazolidine-2,4-dione]	> 50	* (50 < *)	
CCOC(=O)CN1C(=O)S/C(=C\c2ccc(-c3ccc(Cl)c(C(=O)O)c3)o2)C1=O [Compound 115, 2-Chloro-5-[5-(3-ethoxycarbonylmethyl-2,4-dioxo-thiazolidin-5-ylidenemethyl)furan-2-yl]benzoic acid]	> 50	* (50 < *)	
CCOC(=O)CN1C(=O)S/C(=C/c2ccc(-c3cccc([N+](=O)[O-])c3)o2)C1=O [Compound 116, {5-[5-(3-Nitrophenyl)furan-2-ylmethylene]-2,4-dioxo-thiazolidin-3-yl}-acetic acid ethyl ester]	> 50	* (50 < *)	
CCOC(=O)CN1C(=O)S/C(=C\c2ccc(-c3ccc([N+](=O)[O-])cc3)o2)C1=O [Compound 117, {5-[5-(4-Nitrophenyl)furan-2-ylmethylene]-2,4-dioxo-thiazolidin-3-yl}-acetic acid ethyl ester]	> 50	* (50 < *)	
CCOC(=O)CN1C(=O)S/C(=C/c2ccc(-c3ccc([N+](=O)[O-])cc3OC)o2)C1=O [Compound 118, {5-[5-(2-Methoxy-4-nitrophenyl)furan-2-ylmethylene]-2,4-dioxo-thiazolidin-3-yl}-acetic acid ethyl ester]	> 50	* (50 < *)	
O=C1NN(c2ccc(F)cc2)C(=O)C1=Cc1ccc(-c2ccc([N+](=O)[O-])cc2)o1 [Compound 119, 1-(4-Fluorophenyl)-4-[5-(4-nitrophenyl)furan-2-ylmethylene]-pyrazolidine-3,5-dione]	> 50	* (50 < *)	
COCCN1C(=O)C(=Cc2ccc(-c3ccc([N+](=O)[O-])cc3)o2)SC1=S [Compound 120, 3-(2-Methoxy-ethyl)-5-[5-(4-nitrophenyl)furan-2-ylmethylene]-2-thioxo-thiazolidin-4-one]	> 50	* (50 < *)	
CCOC(=O)CN1C(=O)S/C(=C/c2ccc(-c3ccc(C(=O)O)cc3C)o2)C1=O [Compound 121, 4-[5-(3-Ethoxycarbonylmethyl-2,4-dioxo-thiazolidin-5-ylidenemethyl)furan-2-yl]-3-methylbenzoic acid]	> 50	* (50 < *)	
O=C1NC(=O)N(Cc2ccccc2)C(=O)/C1=C/c1ccc(-c2cccc(C(=O)O)c2)o1 [Compound 122, 3-[5-(1-benzyl-2,4,6-trioxo-tetrahydro-pyrimidin-5-ylidenemethyl)furan-2-yl]benzoic acid]		* (50 < *)	> 50
COc1ccc([N+](=O)[O-])cc1-c1ccc(/C=C2/NC(=O)N(c3ccccc3)C2=O)o1 [Compound 123, 5-[5-(2-Methoxy-5-nitrophenyl)furan-2-ylmethylene]-3-phenyl-imidazolidine-2,4-dione]	> 50	* (50 < *)	
Cc1cc(C)cc(N2C(=O)/C(=C/c3ccc(-c4ccc(C(=O)O)cc4)o3)C(=O)NC2=S)c1 [Compound 124, 4-{5-[1-(3,5-Dimethylphenyl)-4,6-dioxo-2-thioxo-tetrahydro-pyrimidin-5-ylidenemethyl]furan-2-yl}benzoic acid]		* (50 < *)	> 50
O=C(O)c1ccc(-c2ccc(/C=C3/NC(=O)N(Cc4ccc(F)cc4)C3=O)o2)cc1 [Compound 126, 4-{5-[1-(4-Fluorobenzyl)-2,5-dioxo-imidazolidin-4-ylidenemethyl]furan-2-yl}benzoic acid]	> 50	* (50 < *)	
